What was measured:
CD34/Sgp90 = test: Interaction of CD34/Sgp90 with L-selectin after inhibition of its sulfation; type: cell-based; conditions: sulfation inhibited by chlorate treatment
Source text: The complete loss of reactivity with LEC-IgG establishes the importance of sulfation for binding. […] CD34/Sgp90 is also a sulfated ligand of L-selectin.

GlyCAM-1 [1] = test: [35S]-sulfate metabolic labelling of lymph node organ culture; precipitation of GlyCAM-1 with peptide antibody or lectins, scintillation counting; type: cell-based, mouse
Experimental: (§1) Slices of mouse lymph nodes were cultured with ^35S-sulfate in the presence and absence of 10 mM sodium chlorate. Detergent lysates were prepared and subjected to precipitation with several reagents that recognize GlyCAM-1. […] Only a background level (0.9% of control) of radioactivity was measured in the precipitate from the chlorate-treated culture.
(§2) Pooled mesenteric and peripheral lymph nodes from ICR mice (80 mg wet weight per condition) were incubated with (a) 250 µCi of [^35-S]-sodium sulfate (ICN) or (b) 250 µCi of [5,6 ^3-H]-L-fucose (ICN) in the presence or absence of 10 mM Na chlorate (Aldrich) in 0.5 ml of RPMI-1640 with 25 mM HEPES (1/10 sulfate concentration) for 4 h at 37°C. Tissue was extracted with 1.2 ml of 2% Triton X-100 (Boehringer Mannheim) in Dulbecco's PBS containing 1 mM PMSF (Sigma), 1% (v/v) aprotinin (Sigma), 10 µg/ml of pepstatin (Boehringer Mannheim) and 0.02% NaN3 (lysis buffer) as described previously^11. The lysates were boiled 3 min and the supernatants were precleared with 100 µl of Protein A Sepharose (Zymed) overnight. Aliquots of the precleared supernatants were added to 10 µl beads of LEC-IgG-Protein A Sepharose Beads (30 µg LEC-IgG per 10 µl beads), rabbit anti-peptide 2-Protein A beads (10 µl serum per 10 µl beads), rabbit preimmune serum-Protein A beads (10 µl serum per 10 µl beads), Limax flavus agglutinin-Sepharose beads (20 µg protein per 10 µl beads), or Aleuria aurantia agglutinin-Sepharose beads (10 µg protein per 10 µl beads), and incubated for 4 h at 4°C on a rocker. The beads were washed in the lysis buffer (6 times), and the 1/14 aliquots of beads were saved for direct counting by a scintillation counting and the remainder of beads were solubilized in Laemmli sample buffer (without beta mercaptoethanol) and run by on a 10% acrylamide gel (nonreducing condition) with fluorography employing ENHANCE (New England Nuclear). Molecular weight markers (BioRad) were phosphorylase B (97.4 K), BSA (66.2 K), ovalbumin (45 K), carbonic anhydrase (31 K), soybean trypsin inhibitor (21.5 K). LEC-IgG and antiserum were coated on Protein A-Sepharose beads by rocking overnight at 4°C. Lectin beads were prepared by coupling Limax agglutinin (Calbiochem) and AAA (Boehringer Mannheim) to CNBr-activated Sepharose 4B (Sigman). Miller, R., Meth. Enzymol. 138:527-536 (1987).
Inhibition of GlyCAM-1 sulfation eliminates its interaction and/or binding with L-selectin. This conclusion was reached when aliquots of the same precipitates of Example 1, labeled with (a) [^35-S]-sulfate or (b) [^3-H]-fucose in the presence (dark bars) or absence (cross-hatched bars) of chlorate were subjected to scintillation counting. The percents shown in a given panel (a) (not shown) indicate the percent counts obtained in the presence of chlorate as compared to the absence of chlorate. The values for anti-peptide 2, Limax, and AAA were essentially the same, reflecting the overall reduction in sulfation. In an independent experiment, the corresponding values were: 6% (for LEC-IgG), 35.6% (for anti-peptide 2), 35.3% (for Limax).

GlyCAM-1 [2] = test: [3H]-fucose metabolic labelling of lymph node organ culture (fucosylation of GlyCAM-1); type: cell-based, mouse
Experimental: (§3) To determine directly whether the fucosylation of GlyCAM-1 was affected by chlorate, ^3H-fucose was employed as a metabolic precursor. […] However, while LEC-IgG precipitated GlyCAM-1 in the control culture, LEC-IgG precipitated only a background level of counts (7% of control) from the chlorate-treated culture and there was no detectable GlyCAM-1.
Pooled mesenteric and peripheral lymph nodes from ICR mice (80 mg wet weight per condition) were incubated with (a) 250 µCi of [^35-S]-sodium sulfate (ICN) or (b) 250 µCi of [5,6 ^3-H]-L-fucose (ICN) in the presence or absence of 10 mM Na chlorate (Aldrich) in 0.5 ml of RPMI-1640 with 25 mM HEPES (1/10 sulfate concentration) for 4 h at 37°C. Tissue was extracted with 1.2 ml of 2% Triton X-100 (Boehringer Mannheim) in Dulbecco's PBS containing 1 mM PMSF (Sigma), 1% (v/v) aprotinin (Sigma), 10 µg/ml of pepstatin (Boehringer Mannheim) and 0.02% NaN3 (lysis buffer) as described previously^11. The lysates were boiled 3 min and the supernatants were precleared with 100 µl of Protein A Sepharose (Zymed) overnight. […]

GlyCAM-1 [3] = test: Label incorporation into GlyCAM-1 immunoprecipitated (CAM02 Ab) from conditioned medium of lymph node organ culture; type: cell-based, mouse
Experimental: (^3H-Gal)-labeled GlyCAM-1 was produced in mouse lymph node organ cultures as described in Examples 1-4 above. Undersulfated GlyCAM was generated by organ culture of murine lymph nodes in medium containing 10 mM Na-chlorate, a known inhibitor of sulfation. GlyCAM-1 was isolated from the conditioned media by immunoprecipitation with an antibody to a peptide sequence in the core protein of GlyCAM-1 (CAM02 Ab), as described in Examples 1-4 above. […] Desialylation of GlyCAM-1 was accomplished in all cases by treatment with Arthrobacter ureafacens sialidase (1.75 units/ml) in 120 mM Na acetate, pH 5.5 (18 h 37°C).

GlyCAM-1 [4] = test: [3H]-threonine metabolic labelling of lymph nodes (synthesis of protein core); type: cell-based, mouse; conditions: presence of chlorate
Experimental: (§4) To determine what effect chlorate had on the synthesis of the protein core of GlyCAM-1, we employed ^3H-threonine as a metabolic label. […] With or without chlorate treatment, two antibodies against the core protein of GlyCAM-1 precipitated broad bands that ran at ≈50K.
(§5) Mouse lymph nodes were labeled with 750 µCi of L-[3-^3H] threonine (Amersham) in 0.5 ml of threonine free-1/10 sulfate concentration-RPMI 1640 containing 25 mM HEPES for 4 h at 37°C in the absence or the presence of 10 mM sodium chlorate. Detergent lysates were boiled, precleared and subjected to precipitation with the indicated reagent as described in Example 1. Conditioned media were precleared and precipitated in parallel. The bead-bound material was analyzed on SDS-PAGE under reducing conditions with fluorography. In the anti-peptide antibody lanes, the ≈50K component was compressed by the immunoglobulin heavy chain.

L-selectin = test: Precipitation of metabolically labelled GlyCAM-1 from lymph node cultures with L-selectin chimera (LEC-IgG); type: cell-based
Experimental: as §1, §3, §4, §2, §5

[5] = chlorate 10 mM in organ cultures of lymph nodes

With `[O-][Cl+2]([O-])O` [chlorate, sodium chlorate] the “ability of CD34/Sgp90 to interact with L-selectin” value (CD34/Sgp90) was “drastically inhibited”, the activity at 10000 µM (GlyCAM-1 [1]; Mus musculus, [^35-S]-sulfate label, independent experiment, read-out: percent counts in the presence of chlorate as compared to the absence, Limax) was 35.3% and the activity at 10000 µM (GlyCAM-1 [1]; Mus musculus, [^35-S]-sulfate label, independent experiment, read-out: percent counts in the presence of chlorate as compared to the absence, anti-peptide 2) was 35.6%. It also gave an activity at 10000 µM (GlyCAM-1 [1]; Mus musculus, ^35S-sulfate label, 10 mM sodium chlorate, detergent lysates, scintillation counting, read-out: radioactivity immunoprecipitated by the peptide antibody) of 12%, an activity at 10000 µM (GlyCAM-1 [1]; Mus musculus, ^35S-sulfate label, 10 mM sodium chlorate, detergent lysates, read-out: ^35S-sulfate precipitated by Aleuria aurentia lectin) of 13.7% and an activity at 10000 µM (GlyCAM-1 [1]; Mus musculus, ^35S-sulfate label, 10 mM sodium chlorate, detergent lysates, read-out: ^35S-sulfate precipitated by Limax agglutinin) of 11.4%. For the same compound, the inhibition at 10000 µM (GlyCAM-1 [1]; Mus musculus, chlorate 10 mM in organ cultures of lymph nodes, read-out: reduction of incorporation of ^35S-SO4 into GlyCAM and CD34) was about 90%, the activity at 10000 µM (GlyCAM-1 [1]; Mus musculus, inferred from the ratio of counts precipitated by the peptide antibody, read-out: sulfate incorporation into GlyCAM-1) was 10 to 15% and the “Binding of GlyCAM to a fucose-specific lectin (Aleuria aurantia agglutinin)” value (GlyCAM-1 [1]; [5]) was “unchanged”. The “Binding of GlyCAM to a sialic acid specific lectin (Limax agglutinin)” value (GlyCAM-1 [1]; [5]) was “unchanged”, the “cpm precipitated by the peptide antibody” value (GlyCAM-1 [2]; ^3H-fucose label, detergent lysates, chlorate versus control cultures) was “approximately the same number of cpm” and the “level of fucosylation (incorporation of [^3H]-fucose into GlyCAM)” value (GlyCAM-1 [2]; presence of chlorate) was “not affected”. The “[^3H]-galactose activity incorporated by GlyCAM, presence versus absence of chlorate” value (GlyCAM-1 [3]; 10 mM Na-chlorate, 0.25 mCi input) was “about the same”, the “incorporation of [^35S]-sulfate into GlyCAM” value (GlyCAM-1 [3]; 10 mM Na-chlorate, 0.5 mCi input, control 1.75 x 10^6 cpm) was 0.16 x 10^6 cpm and the activity at 10000 µM (GlyCAM-1 [3]; Mus musculus, 10 mM Na-chlorate, 0.5 mCi input, read-out: incorporation of [^35S]-sulfate into GlyCAM) was 10%. The “[^3H]-galactose activity incorporated by GlyCAM” value (GlyCAM-1 [3]; presence or absence of chlorate, 0.25 mCi input) was 2 x 10^6 cpm, the “rate of synthesis of the protein core of GlyCAM or CD34” value (GlyCAM-1 [4]) was “did not affect” and the “percent counts in the presence of chlorate as compared to the absence, LEC-IgG” value (L-selectin; [^35-S]-sulfate label, independent experiment, 10000 µM) was 6%. The “counts precipitated by LEC-IgG” value (L-selectin; ^3H-fucose label, chlorate-treated culture, 10000 µM) was 7 % of control, the “GlyCAM-1 component precipitated by LEC-IgG from conditioned medium” value (L-selectin; ^3H-threonine label, chlorate present during the culture) was “did not react with any components” and the “radioactivity in the LEC-IgG precipitate” value (L-selectin; ^35S-sulfate label, 10 mM sodium chlorate, detergent lysates) was 0.9 % of control. For the same compound, the “GlyCAM-1 band precipitated by LEC-IgG (SDS-PAGE)” value (L-selectin; ^35S-sulfate label, chlorate-treated culture, strong band in control) was “failed to precipitate a detectable GlyCAM-1 band”, the “binding to L-selectin (GlyCAM and CD34)” value (L-selectin; [5]) was “completely eliminated” and the “binding of LEC-IgG to GlyCAM” value (L-selectin; culture in chlorate) was “completely abrogated”.

Source: EP0750511B1, “TREATING IN[…] THE ADMINISTRATION OF SPECIFIC SULFATASE ENZYMES AND/OR SULFATION INHIBITOR” (THE REGENTS OF THE UNIVERSITY OF CALIFORNIA, priority 1994, dated 1995)
